Laboratory results taken from US9023789B2, “Amylin analogs and pharmaceutical compositions thereof” (Novo Nordisk A/S, priority 2012, dated 2015).
pIC50: −log10 of the molar value. Numbered stars: 1 amine (or outer) side, 2 acyl side, 3 side chain; on linkers, the order of the positions; unused ones are H or OH. Bridge positions count the residues as written; N and C are the ends. Side chains are listed from the residue outwards. Peptide text beside a SMILES is read from it. * marks the point of attachment. C20 diacid = O=C(O)CCCCCCCCCCCCCCCCCCC(=O)*; γGlu = O=C(O)[C@H](CCC(=O)[*:2])N[*:1]; AEEA = NCCOCCOCC(=O)O

Key:
[1] = biological target: T1, rat amylin receptor (rat calcitonin receptor + rat RAMP 3) (Rattus norvegicus, UniProt P32214+Q9JJ73); assay: ASSAY (VI) binding to the rat amylin receptor; details: for pIC50: binding to rat amylin receptor, read-out: rAmylin-R bind IC50
T1 construct: expressed in transfected cells; host or cells: BHK tk'ts 13 (transient, FuGENE 6), membranes
T1 sequence (P32214 25-479 isoform P32214-2 limits assumed): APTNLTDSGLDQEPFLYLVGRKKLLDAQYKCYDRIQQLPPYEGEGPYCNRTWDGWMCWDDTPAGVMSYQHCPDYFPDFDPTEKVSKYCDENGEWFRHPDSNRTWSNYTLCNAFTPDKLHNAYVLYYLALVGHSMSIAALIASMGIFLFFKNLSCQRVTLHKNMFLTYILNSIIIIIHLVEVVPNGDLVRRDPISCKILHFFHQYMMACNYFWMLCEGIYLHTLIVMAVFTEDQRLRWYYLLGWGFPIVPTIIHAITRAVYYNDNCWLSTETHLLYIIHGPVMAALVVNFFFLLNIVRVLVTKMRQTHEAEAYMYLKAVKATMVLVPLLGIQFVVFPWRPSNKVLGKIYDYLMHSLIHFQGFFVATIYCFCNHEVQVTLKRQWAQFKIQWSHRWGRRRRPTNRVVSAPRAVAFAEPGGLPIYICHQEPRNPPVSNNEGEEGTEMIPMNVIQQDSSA
T1 sequence (Q9JJ73 23-147 partner): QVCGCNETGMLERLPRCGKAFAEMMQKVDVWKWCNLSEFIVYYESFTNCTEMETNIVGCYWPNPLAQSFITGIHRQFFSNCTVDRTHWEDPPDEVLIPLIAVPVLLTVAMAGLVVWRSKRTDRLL
Method in brief: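 The cell-membrane assay assessed binding at the rat amylin receptor. BHK tk′ts 13 cells were transfected transiently with rat calcitonin receptor, with FuGENE® 6 (Roche) as the transfection reagent, used per the manufacturer's recommendations. Approximately 48 hours after transfection the cells were harvested, and membranes were prepared for measuring binding.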

[2] = ASSAY (III) ThT fibrillation assay for physical stability; format: physicochemical
Method in brief: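 Physical stability scored by ThT fluorescence (444 nm excitation, 485 nm emission) tracked every 20 min during 37 °C incubation with 960 rpm shaking, ThT at 1 μM final. Values are replicate means with SD at chosen times; HPLC against pramlintide standard gives initial and post-assay soluble concentrations.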

[3] = Table 7, rat binding selectivity, rCTR IC50 / rAmylin-R IC50
[4] = Table 7a (preferred compounds), rat binding selectivity, rCTR IC50 / rAmylin-R IC50
[5] = ratio of rCTR bind IC50 to rAmylin-R bind IC50

Compound | pIC50 ([1]; Table 7) | Ratio rCT/rAmylin binding [1, 3] | Ratio rCT/rAmylin binding [1, 4] | Ratio rCT/rAmylin binding [1, 5] | ThT pH 4.0 lag time (h) [2] [h]
CC[C@H](C)[C@H](NC(=O)[C@H](C)NC(=O)CNC(=O)[C@H](Cc1ccccc1)NC(=O)[C@H](CC(N)=O)NC(=O)[C@@H]1CCCN1C(=O)[C@H](CO)NC(=O)[C@H](CO)NC(=O)[C@H](Cc1c[nH]cn1)NC(=O)[C@H](CCCNC(=N)N)NC(=O)[C@H](CC(C)C)NC(=O)[C@H](Cc1ccccc1)NC(=O)[C@H](CC(N)=O)NC(=O)[C@H](C)NC(=O)[C@H](CC(C)C)NC(=O)[C@H](CCCNC(=N)N)NC(=O)[C@H](CCC(N)=O)NC(=O)[C@@H](NC(=O)[C@H](C)NC(=O)[C@@H]1CSSC[C@H](NC(=O)[C@@H](N)CCCCNC(=O)COCCOCCNC(=O)CC[C@H](NC(=O)CCCCCCCCCCCCCCCCCCC(=O)O)C(=O)O)C(=O)N[C@@H](CC(N)=O)C(=O)N[C@@H]([C@@H](C)O)C(=O)N[C@@H](C)C(=O)N[C@@H]([C@@H](C)O)C(=O)N1)[C@@H](C)O)C(=O)N1CCC[C@H]1C(=O)N[C@@H](CO)C(=O)N[C@@H](CO)C(=O)N[C@H](C(=O)N1CCC[C@H]1C(=O)N[C@H](C(=O)NCC(=O)N[C@@H](CO)C(=O)N[C@@H](Cc1c[nH]cn1)C(=O)N[C@H](C(=O)N[C@@H](Cc1ccc(O)cc1)C(N)=O)[C@@H](C)O)C(C)C)[C@@H](C)O [Example 57] (H-K([AEEA-γGlu-C20 diacid])CNTATCATQRLANFLRHSSPNFGAIPSSTPVGSHTY-NH2; disulfide 2-7; N-terminus assumed) | 9.74 | 134.8 | 134.8 | 134.8 | 45
CC[C@H](C)[C@H](NC(=O)[C@H](C)NC(=O)CNC(=O)[C@H](Cc1ccccc1)NC(=O)[C@H](CC(N)=O)NC(=O)[C@@H]1CCCN1C(=O)[C@H](CO)NC(=O)[C@H](CO)NC(=O)[C@H](Cc1c[nH]cn1)NC(=O)[C@H](CCCNC(=N)N)NC(=O)[C@H](CC(C)C)NC(=O)[C@H](Cc1ccccc1)NC(=O)[C@H](CCC(=O)O)NC(=O)[C@H](C)NC(=O)[C@H](CC(C)C)NC(=O)[C@H](CCCNC(=N)N)NC(=O)[C@H](CCC(N)=O)NC(=O)[C@@H](NC(=O)[C@H](C)NC(=O)[C@@H]1CSSC[C@H](NC(=O)[C@@H](N)CCCCNC(=O)CC[C@H](NC(=O)CCCCCCCCCCCCCCCCCCC(=O)O)C(=O)O)C(=O)N[C@@H](CC(N)=O)C(=O)N[C@@H]([C@@H](C)O)C(=O)N[C@@H](C)C(=O)N[C@@H]([C@@H](C)O)C(=O)N1)[C@@H](C)O)C(=O)N1CCC[C@H]1C(=O)N[C@@H](CO)C(=O)N[C@@H](CO)C(=O)N[C@H](C(=O)N[C@@H](CC(N)=O)C(=O)N[C@H](C(=O)NCC(=O)N1CCC[C@H]1C(=O)N[C@@H](CCC(=O)O)C(=O)N[C@H](C(=O)N[C@@H](Cc1ccc(O)cc1)C(N)=O)[C@@H](C)O)C(C)C)[C@@H](C)O [Example 109] (H-K([γGlu-C20 diacid])CNTATCATQRLAEFLRHSSPNFGAIPSSTNVGPETY-NH2; disulfide 2-7 (inferred); N-terminus assumed) | 9.79 | 63.2 | 63.2 | 63.2 | 35
CC[C@H](C)[C@H](NC(=O)[C@H](C)NC(=O)CNC(=O)[C@H](Cc1ccccc1)NC(=O)[C@H](CC(N)=O)NC(=O)[C@@H]1CCCN1C(=O)[C@H](CO)NC(=O)[C@H](CO)NC(=O)[C@H](Cc1c[nH]cn1)NC(=O)[C@H](CCCNC(=N)N)NC(=O)[C@H](CC(C)C)NC(=O)[C@H](Cc1ccccc1)NC(=O)[C@H](CC(N)=O)NC(=O)[C@H](C)NC(=O)[C@H](CC(C)C)NC(=O)[C@H](CCCNC(=N)N)NC(=O)[C@H](CCC(N)=O)NC(=O)[C@@H](NC(=O)[C@H](C)NC(=O)[C@@H]1CSSC[C@H](NC(=O)[C@@H](N)CCCCNC(=O)COCCOCCNC(=O)COCCOCCNC(=O)CC[C@H](NC(=O)CCCCCCCCCCCCCCCCCCC(=O)O)C(=O)O)C(=O)N[C@@H](CC(N)=O)C(=O)N[C@@H]([C@@H](C)O)C(=O)N[C@@H](C)C(=O)N[C@@H]([C@@H](C)O)C(=O)N1)[C@@H](C)O)C(=O)N1CCC[C@H]1C(=O)N[C@@H](CO)C(=O)N[C@@H](CO)C(=O)N[C@H](C(=O)N[C@@H](CC(N)=O)C(=O)N[C@H](C(=O)NCC(=O)N[C@@H](CO)C(=O)N[C@@H](CCC(=O)O)C(=O)N[C@H](C(=O)N[C@@H](Cc1ccc(O)cc1)C(N)=O)[C@@H](C)O)C(C)C)[C@@H](C)O [Example 25] | 8.46 | 37.7 | 37.7 | 37.7 | 2
CC[C@H](C)[C@H](NC(=O)[C@H](C)NC(=O)CNC(=O)[C@H](Cc1ccccc1)NC(=O)[C@H](CC(N)=O)NC(=O)[C@@H]1CCCN1C(=O)[C@H](CO)NC(=O)[C@H](CO)NC(=O)[C@H](Cc1c[nH]cn1)NC(=O)[C@H](CCCNC(=N)N)NC(=O)[C@H](CC(C)C)NC(=O)[C@H](Cc1ccccc1)NC(=O)[C@H](CCC(=O)O)NC(=O)[C@H](C)NC(=O)[C@H](CC(C)C)NC(=O)[C@H](CCCNC(=N)N)NC(=O)[C@H](CCC(N)=O)NC(=O)[C@@H](NC(=O)[C@H](C)NC(=O)[C@@H]1CSSC[C@H](NC(=O)[C@@H](N)CCCCNC(=O)CC[C@H](NC(=O)CCCCCCCCCCCCCCCCCCC(=O)O)C(=O)O)C(=O)N[C@@H](CC(N)=O)C(=O)N[C@@H]([C@@H](C)O)C(=O)N[C@@H](C)C(=O)N[C@@H]([C@@H](C)O)C(=O)N1)[C@@H](C)O)C(=O)N1CCC[C@H]1C(=O)N[C@@H](CO)C(=O)N[C@@H](CO)C(=O)N[C@H](C(=O)N[C@@H](CC(N)=O)C(=O)N[C@H](C(=O)NCC(=O)N1CCC[C@H]1C(=O)N[C@@H](Cc1c[nH]cn1)C(=O)N[C@H](C(=O)N[C@@H](Cc1ccc(O)cc1)C(N)=O)[C@@H](C)O)C(C)C)[C@@H](C)O [Example 118] (H-K([γGlu-C20 diacid])CNTATCATQRLAEFLRHSSPNFGAIPSSTNVGPHTY-NH2; disulfide 2-7) | 9.98 | 52.2 | 52.2 | 52.2 | 45
